Measured values taken from patent publication US6486098B1, “Herbicidal phenoxypropionic acid N-alkyl-N-2-fluorophenyl amide compounds” (Dongbu Hannong Chemical Co. Ltd., priority 1999, dated 2002).
Values joined by “and” are separate entries in the source; they are usually repeats but may differ in a detail not shown here. Identical values can stand only once.

Assays:
GOSHI (Cotton) = assay: Leaf treatment test, cotton; type: in vivo, Gossypium; conditions: 14 days after treatment
Procedure: (§1) Seeds of rice, wheat, barley, corn, cotton, barnyard grass, common sorgum, large crabgrass and fall panicum were seeded at a pot with a surface area of 600 cm^2. […] 14 days after the treatment, the degree of damage to the plants was rated in % damage in comparison to the development of untreated control.

barnyard grass (ECHCG) = assay: Experimental Example 2, herbicidal effect on barnyard grass ECHCG; type: in vivo, Eclzinocgloa crus-galli beauv. var. caudate Kitagawa; conditions: 1˜2 tillering, 200 g a.i per hactare on the leaves, Tech. 98%
Source text: (§2) Rice[Oryza sativa. L. cv.
(§3) The result is represented in the following table 8.

GLXMA (Soy bean) = assay: Leaf treatment test, soy bean; type: in vivo, Glycine max (L.) MERR; conditions: 14 days after treatment
TRZAW (Wheat) = assay: Leaf treatment test, wheat; type: in vivo, Triticum aestivum L.; conditions: 14 days after treatment
Procedure: as §1

Rice (ORYSA) = conditions: 6.0˜6.5 leaves, 200 g a.i per hactare on the leaves, Tech. 98%
Procedure: Rice[Oryza sativa. L. cv. Chuchong(ORYSA)] and barnyard grass [Eclzinocgloa crus-galli beauv. var. caudate Kitagawa(ECHCG) and Ecliinocgloa crus-galli Beauv. var. orygicola Ohwi (ECHOR)] were planted and grown. The test compounds with 98% purity was dissolved in acetone containing tween-20 and diluted with water. Each maximum concentration of acetone and tween-20 were 25% and 0.1%.
The solution was sprayed in a proportion of 200 g a.i per hactare on the leaves. When rice{ORYSA} had 6.0˜6.5 leaves with 32.8 cm of the first leaf, barnyard grass(ECHOR) had 1˜2 tillering with 37.3 cm of the first leaf and barnyard grass(ECHCG) had 1˜2 tillering with 44.4 cm of the first leaf.
20 and 30 days after treatment (DAT) herbicidal effect and toxicity were measured.

DIGSA (Large crabgrass) = assay: Leaf treatment test, large crabgrass; type: in vivo, Digitaria Sanguinalis (L.) SCOP; conditions: 14 days after treatment
Procedure: as §1

ZEAMX (Corn) = assay: Leaf treatment test, corn; type: in vivo, Zea mays L.; conditions: 14 days after treatment
Procedure: as §1

PANDI (Fall panicum) = assay: Leaf treatment test, fall panicum; type: in vivo, Panicum dichotomiflorum Michx; conditions: 14 days after treatment
Procedure: as §1

SORBI (Common sorgum) = assay: Leaf treatment test, common sorgum; type: in vivo, Andropogon sorghum; conditions: 14 days after treatment
Procedure: as §1

ORYSA (Rice) = assay: Leaf treatment test, rice; type: in vivo, Oryza sativa L. cv. Dongjin; conditions: 14 days after treatment
Procedure: as §1

ECHCG (Barnyard grass) = assay: Leaf treatment test, barnyard grass; type: in vivo, Echinochloa crus-galli Beauv. var. caudata Kitagawa; conditions: leaf treatment at three leaves, 14 days after treatment
Procedure: as §1

barnyard grass (ECHOR) = assay: Experimental Example 2, herbicidal effect on barnyard grass ECHOR; type: in vivo, Ecliinocgloa crus-galli Beauv. var. orygicola Ohwi; conditions: 1˜2 tillering, 200 g a.i per hactare on the leaves, Tech. 98%
Source text: as §2, §3

rice = assay: Leaf treatment test, 4 leaves, rice (Table 7); type: in vivo, Oryza sativa L. cv. Dongjin
Procedure: as §1
(§4) Among the compounds of the formula (1), herbicidal activity of the compounds in table 5 is represented in the following table 6 and 7.

Barnyard grass = assay: Leaf treatment test, 4 leaves, barnyard grass (Table 7); type: in vivo, Echinochloa crus-galli Beauv. var. caudata Kitagawa
Procedure: as §1, §4

Row | Structure (SMILES) | degree of damage to the plants (% damage) (GOSHI (Cotton); treated amount 0.025 kg/ha) | degree of damage to the plants (% damage) (GOSHI (Cotton); treated amount 0.1 kg/ha) | degree of damage to the plants (% damage) (GOSHI (Cotton); treated amount 0.4 kg/ha) | degree of damage to the plants (% damage) (GLXMA (Soy bean); treated amount 0.025 kg/ha) | degree of damage to the plants (% damage) (GLXMA (Soy bean); treated amount 0.4 kg/ha) | degree of damage to the plants (% damage) (TRZAW (Wheat); treated amount 0.025 kg/ha) | degree of damage to the plants (% damage) (DIGSA (Large crabgrass); treated amount 0.025 kg/ha) | degree of damage to the plants (% damage) (DIGSA (Large crabgrass); treated amount 0.1 kg/ha) | degree of damage to the plants (% damage) (DIGSA (Large crabgrass); treated amount 0.4 kg/ha) | degree of damage to the plants (% damage) (ZEAMX (Corn); treated amount 0.025 kg/ha) | degree of damage to the plants (% damage) (ZEAMX (Corn); treated amount 0.1 kg/ha) | degree of damage to the plants (% damage) (ZEAMX (Corn); treated amount 0.4 kg/ha) | degree of damage to the plants (% damage) (PANDI (Fall panicum); treated amount 0.025 kg/ha) | degree of damage to the plants (% damage) (PANDI (Fall panicum); treated amount 0.1 kg/ha) | degree of damage to the plants (% damage) (PANDI (Fall panicum); treated amount 0.4 kg/ha) | degree of damage to the plants (% damage) (SORBI (Common sorgum); treated amount 0.025 kg/ha) | degree of damage to the plants (% damage) (SORBI (Common sorgum); treated amount 0.1 kg/ha) | degree of damage to the plants (% damage) (SORBI (Common sorgum); treated amount 0.4 kg/ha) | degree of damage to the plants (% damage) (ORYSA (Rice); treated amount 0.025 kg/ha) | degree of damage to the plants (% damage) (ORYSA (Rice); treated amount 0.1 kg/ha) | further results
1 | CC(Oc1ccc(Oc2nc3ccc(Cl)cc3o2)cc1)C(=O)Nc1ccccc1F (centres unmarked) [control 1, 2-[4-(6-Chloro-2-benzoxazoyloxy)-phenoxy]propionic Acid-N-(2-fluorophenyl)amide, reference compound] | 0% | 0% | 0% | 0% | 40% and 30% | 0% | 100% | 100% | 100% | 100% and 80% | 100% | 100% | 100% and 95% | 100% | 100% | 100% | 100% | 100% | 35% and 40% | 50% and 70% | activity (0˜100), 20 DAT ECHCG (barnyard grass (ECHCG)): 100; toxicity (0˜100) 20 DAT (Rice (ORYSA); 20 DAT): 22; toxicity (0˜100) 30 DAT (Rice (ORYSA); 30 DAT): 39; degree of damage to the plants (% damage) (ORYSA (Rice); treated amount 0.4 kg/ha): 70% and 90%; degree of damage to the plants (% damage) (ECHCG (Barnyard grass); treated amount 0.025 kg/ha): 100%; degree of damage to the plants (% damage) (ECHCG (Barnyard grass); treated amount 0.1 kg/ha): 100%; degree of damage to the plants (% damage) (ECHCG (Barnyard grass); treated amount 0.4 kg/ha): 100%; activity (0˜100), 20 DAT ECHOR (barnyard grass (ECHOR)): 100
2 | CC(Oc1ccc(Oc2nc3ccc(Cl)cc3o2)cc1)C(=O)N(C)c1ccccc1F (centres unmarked) [Compound No. 1, 2-[4-(6-Chloro-2-benzoxazoyloxy)-phenoxy]propionic Acid-N-(2-fluorophenyl)-N-methylamide] | 0% | 0% | 0% | 0% | 20% | 0% | 100% | 100% | 100% | 0% | 70% | 100% | 100% | 100% | 100% | 100% | 100% | 100% | 0% | 0% | degree of damage to the plants (% damage) (GLXMA (Soy bean); treated amount 0.1 kg/ha): 0%; degree of damage to the plants (% damage) (TRZAW (Wheat); treated amount 0.1 kg/ha): 0%; degree of damage to the plants (% damage) (TRZAW (Wheat); treated amount 0.4 kg/ha): 0%; degree of damage to the plants (% damage) (rice; treated amount 0.016 kg/ha): 0%; degree of damage to the plants (% damage) (rice; treated amount 0.063 kg/ha): 0%; degree of damage to the plants (% damage) (rice; treated amount 0.25 kg/ha): 0%; degree of damage to the plants (% damage) (rice; treated amount 1.0 kg/ha): 0%; degree of damage to the plants (% damage) (Barnyard grass; treated amount 0.016 kg/ha): 75%; degree of damage to the plants (% damage) (Barnyard grass; treated amount 0.063 kg/ha): 100%; degree of damage to the plants (% damage) (Barnyard grass; treated amount 0.25 kg/ha): 100%; degree of damage to the plants (% damage) (Barnyard grass; treated amount 1.0 kg/ha): 100%; degree of damage to the plants (% damage) (ORYSA (Rice); treated amount 0.4 kg/ha): 0%; degree of damage to the plants (% damage) (ECHCG (Barnyard grass); treated amount 0.025 kg/ha): 90%; degree of damage to the plants (% damage) (ECHCG (Barnyard grass); treated amount 0.1 kg/ha): 100%; degree of damage to the plants (% damage) (ECHCG (Barnyard grass); treated amount 0.4 kg/ha): 100%
3 | CCOC(=O)C(C)Oc1ccc(Oc2nc3ccc(Cl)cc3o2)cc1 (centres unmarked) [control 2, Fenoxaprop-ethyl, reference compound] |  |  |  |  |  |  |  |  |  |  |  |  |  |  |  |  |  |  |  |  | degree of damage to the plants (% damage) (rice; treated amount 0.016 kg/ha): 20%; degree of damage to the plants (% damage) (rice; treated amount 0.063 kg/ha): 30%; degree of damage to the plants (% damage) (rice; treated amount 0.25 kg/ha): 70%; degree of damage to the plants (% damage) (rice; treated amount 1.0 kg/ha): 85%; degree of damage to the plants (% damage) (Barnyard grass; treated amount 0.016 kg/ha): 95%; degree of damage to the plants (% damage) (Barnyard grass; treated amount 0.063 kg/ha): 100%; degree of damage to the plants (% damage) (Barnyard grass; treated amount 0.25 kg/ha): 100%; degree of damage to the plants (% damage) (Barnyard grass; treated amount 1.0 kg/ha): 100%
4 | CCN(C(=O)C(C)Oc1ccc(Oc2nc3ccc(Cl)cc3o2)cc1)c1ccccc1F (centres unmarked) [Compound No. 2] | 0% | 0% | 0% | 0% | 10% | 0% | 30% | 95% | 100% | 5% | 10% | 70% | 0% | 100% | 100% | 40% | 95% | 100% | 0% | 0% | degree of damage to the plants (% damage) (GLXMA (Soy bean); treated amount 0.1 kg/ha): 0%; degree of damage to the plants (% damage) (TRZAW (Wheat); treated amount 0.1 kg/ha): 0%; degree of damage to the plants (% damage) (TRZAW (Wheat); treated amount 0.4 kg/ha): 0%; degree of damage to the plants (% damage) (ORYSA (Rice); treated amount 0.4 kg/ha): 0%; degree of damage to the plants (% damage) (ECHCG (Barnyard grass); treated amount 0.025 kg/ha): 20%; degree of damage to the plants (% damage) (ECHCG (Barnyard grass); treated amount 0.1 kg/ha): 80%; degree of damage to the plants (% damage) (ECHCG (Barnyard grass); treated amount 0.4 kg/ha): 95%
